System: ZSCAN4, TRIM43, LEUTX, KHDC1L
Assay: DUX4-regulated downstream genes by real time PCR in FSHD myotubes
Format: cell-based, human
Details: 1 μM ASO; FSHD myotubes vs DMSO
Protocol: For qPCR, dilute 1:10 and use 2 μL for a 10 μL 1-step RT-qPCR reaction. For detection of GAPDH, RPLPO, TBP, MYOG, FRG1, MYH3, ACTN2, etc.). Per 10 μL reaction: RNA (1:10 dilution lysate) 2 μL, Fast Advanced Taqman Master Mix (2×) 5 μL, RT enzyme mix (40×) 0.25 μL, Taqman probe set (20×) 0.5 μL, H2O 2.25 μL. The following reaction protocol was run on the QuantStudio 7: 48° C. for 15 min, 50° C. for 2 min, 95° C. for 30 sec, 40×, 95° C. for 5 sec, 60° C. for 30 sec, then plates were read as specified by the manufacturer (Thermo). For 1-step RT-Preamplification used for detection of DUX4 downstream genes, i.e. MBD3L2, ZSCAN4, LEUTX, TRIM43, KHDC1L. POL2RA-VIC was used as Endogenous control). Per 10 μL reaction: RNA (1:10 dilution lysate) 2.25 μL, Taqman Pre-Amp Master Mix (2×) 5 μL, RT enzyme mix (40×) 0.25 μL, Taqman probe set (0.2×)*2.5 μL, * Pooling the TaqMan Assays: equal volumes of each 20× TaqMan® Gene Expression Assay, up to 100 assays were combined. For example, to pool 50 TaqMan assays, 10 μL of each assay were combined in a microcentrifuge tube. The pooled TaqMan assays were diluted using 1×TE buffer so that each assay is at a final concentration of 0.2×. For the above example, add 500 μL of 1×TE buffer to the pooled TaqMan assays for a total final volume of 1 mL. The QuantStudio7 protocol was used 48° C. 15 min, 95° C. 10 min, 10 cycles: 95° C. 15 sec, 60° C. 4 min, 4° C. infinite. Samples were then diluted to 50 μL and continue with the qPCR step. Per 10 μL reaction: Preamp dilution 2 μL, Fast Advanced Taqman Master Mix (2×) 5 μL, Taqman probe set (20×) 0.5 μL, H2O 2.5 μL. When multiplexing the volume was adjusted to 10 μL total). The following program was run on the QuantStudio7: 50° C. for 2 min, 95° C. for 30 sec, 40×, 95° C. for 5 sec, 60° C. for 30 sec, plates were read as per the manufacturers specifications (Thermo).
Wild type myotubes were treated with DMSO control vehicle, and mature patient-derived FSHD myotubes that express DUX4 protein were treated with DMSO vehicle control or 1 μM of a DUX4 sequence-directed antisense oligonucleotide (ASO; FTX-2) purchased from Exiqon. After treatment, the myotubes were lysed in 19.5 μL of Roche Real Time Ready Lysis Buffer, 0.25 μL of DNAsel (Ambion, AM2222), 0.25 μL of Protector RNase Inhibitor (Roche, 3335402001), and the RNA was collected in an RNeasy Micro Kit Master Mix. Expression levels of DUX4-regulated downstream genes (ZSCAN4, TRIM43, MBD3L2, LEUTX, and KHDC1L) was determined by real time PCR (ThermoFisher Scientific, 4484262), ZSCAN4 Taqman Assay (ThermoFisher Scientific, Hs00537549 ml, FAM-MGB), MYOG Taqman Assay (ThermoFisher Scientific, Hs01072232_ml, JUN-QSY), RPLPO Taqman Assay (ThermoFisher Scientific, Hs99999902_ml), and/or LEUTX Taqman Assay (ThermoFisher Scientific, Hs00418470_ml). […]

FTX-2: DUX4 sequence-directed antisense oligonucleotide purchased from Exiqon, CAGCGTCGGAAGGTGG (SEQ ID NO: 1) (listed as DNA, chemistry not given here)
reduced amounts: KHDC1L expression | LEUTX expression | TRIM43 expression | ZSCAN4 expression
